Test results taken from patent publication EP4722207A1, “OXOISOINDOLINYL-SUBSTITUTED TETRAHYDROPYRIMIDINEDIONE DERIVATIVE AND USE THEREOF” (Gluetacs Therapeutics (Shanghai) Co., Ltd., priority 2023, dated 2024).

Columns and labels:
Format in all cases: cell-based
Conditions in all cases: 24 hours of compound treatment, 50 nM and 500 nM
WEE1 = target: T1, WEE1 (Homo sapiens, UniProt P30291+Q96SW2); assay: Western-blot assay, substrate protein degradation in hPBMCs: WEE1
T1 construct: effects of the compounds of the present disclosure on the expression of target proteins in cells; endogenous in cells; host or cells: human PBMCs (hPBMCs)

IKZF1 = target: T2, IKZF1 (Homo sapiens, UniProt Q13422+Q96SW2); assay: Western-blot assay, substrate protein degradation in hPBMCs: IKZF1
T2 construct: effects of the compounds of the present disclosure on the expression of target proteins in cells; endogenous in cells; host or cells: human PBMCs (hPBMCs)
T2 sequence (Q13422 whole entry): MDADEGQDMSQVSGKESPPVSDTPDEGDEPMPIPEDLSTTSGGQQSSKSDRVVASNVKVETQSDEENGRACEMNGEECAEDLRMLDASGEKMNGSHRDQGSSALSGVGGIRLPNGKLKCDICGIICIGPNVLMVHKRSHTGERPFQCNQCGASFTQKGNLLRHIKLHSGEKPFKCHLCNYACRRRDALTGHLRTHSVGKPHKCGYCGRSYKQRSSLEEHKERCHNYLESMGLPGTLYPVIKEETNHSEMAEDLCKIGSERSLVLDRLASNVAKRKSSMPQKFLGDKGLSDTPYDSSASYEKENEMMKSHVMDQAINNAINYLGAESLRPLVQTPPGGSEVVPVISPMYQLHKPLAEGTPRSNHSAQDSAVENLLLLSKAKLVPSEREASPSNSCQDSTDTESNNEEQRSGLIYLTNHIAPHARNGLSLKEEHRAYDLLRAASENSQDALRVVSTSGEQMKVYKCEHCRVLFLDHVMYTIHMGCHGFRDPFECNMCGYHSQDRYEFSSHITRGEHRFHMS
T2 sequence (Q96SW2 whole entry): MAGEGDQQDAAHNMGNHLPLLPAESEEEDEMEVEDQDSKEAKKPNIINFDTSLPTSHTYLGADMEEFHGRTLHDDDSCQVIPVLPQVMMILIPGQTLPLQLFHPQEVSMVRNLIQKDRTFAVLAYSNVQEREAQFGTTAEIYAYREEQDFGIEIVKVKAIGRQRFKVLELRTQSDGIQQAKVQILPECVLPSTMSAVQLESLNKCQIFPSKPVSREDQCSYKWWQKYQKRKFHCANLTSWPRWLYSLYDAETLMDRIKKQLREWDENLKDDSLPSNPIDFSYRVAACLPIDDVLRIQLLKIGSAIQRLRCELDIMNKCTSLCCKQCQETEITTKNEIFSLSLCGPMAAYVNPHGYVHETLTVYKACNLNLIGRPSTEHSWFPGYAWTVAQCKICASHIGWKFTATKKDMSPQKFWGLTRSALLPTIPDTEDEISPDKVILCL
T2 sequence (Q16531 whole entry partner): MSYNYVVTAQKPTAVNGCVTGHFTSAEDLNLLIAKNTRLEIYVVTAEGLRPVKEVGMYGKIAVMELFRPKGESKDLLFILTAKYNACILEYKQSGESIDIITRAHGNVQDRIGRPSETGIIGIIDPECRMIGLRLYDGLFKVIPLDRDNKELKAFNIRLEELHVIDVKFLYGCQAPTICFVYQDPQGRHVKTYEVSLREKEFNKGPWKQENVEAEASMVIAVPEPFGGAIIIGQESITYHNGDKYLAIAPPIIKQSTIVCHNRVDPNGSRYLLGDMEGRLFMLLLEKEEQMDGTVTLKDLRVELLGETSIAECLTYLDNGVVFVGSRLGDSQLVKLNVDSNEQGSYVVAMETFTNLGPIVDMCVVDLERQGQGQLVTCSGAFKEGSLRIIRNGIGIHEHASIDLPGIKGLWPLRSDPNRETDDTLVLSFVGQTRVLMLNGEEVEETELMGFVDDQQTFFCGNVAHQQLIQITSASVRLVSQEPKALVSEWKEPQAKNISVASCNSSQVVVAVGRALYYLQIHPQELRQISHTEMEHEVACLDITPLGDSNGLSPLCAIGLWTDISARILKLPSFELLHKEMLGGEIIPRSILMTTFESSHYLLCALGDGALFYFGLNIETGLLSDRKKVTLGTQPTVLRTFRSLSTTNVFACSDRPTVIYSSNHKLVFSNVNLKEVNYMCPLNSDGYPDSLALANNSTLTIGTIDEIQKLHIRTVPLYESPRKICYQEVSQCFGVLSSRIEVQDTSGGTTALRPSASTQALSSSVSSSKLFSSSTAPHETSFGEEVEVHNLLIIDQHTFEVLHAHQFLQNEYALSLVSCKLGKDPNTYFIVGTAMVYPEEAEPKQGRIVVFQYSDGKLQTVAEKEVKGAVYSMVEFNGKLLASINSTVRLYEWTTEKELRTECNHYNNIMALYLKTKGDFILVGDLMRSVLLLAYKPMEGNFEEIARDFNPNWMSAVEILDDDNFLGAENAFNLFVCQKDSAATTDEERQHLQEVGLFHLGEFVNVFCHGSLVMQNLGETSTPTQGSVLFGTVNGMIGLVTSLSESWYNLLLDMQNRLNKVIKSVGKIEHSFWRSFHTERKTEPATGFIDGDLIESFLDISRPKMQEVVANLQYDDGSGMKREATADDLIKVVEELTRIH

IKZF2 = target: T3, IKZF2 (Homo sapiens, UniProt Q96SW2+Q9UKS7); assay: Western-blot assay, substrate protein degradation in hPBMCs: IKZF2
T3 construct: effects of the compounds of the present disclosure on the expression of target proteins in cells; endogenous in cells; host or cells: human PBMCs (hPBMCs)
T3 sequence (Q9UKS7 whole entry): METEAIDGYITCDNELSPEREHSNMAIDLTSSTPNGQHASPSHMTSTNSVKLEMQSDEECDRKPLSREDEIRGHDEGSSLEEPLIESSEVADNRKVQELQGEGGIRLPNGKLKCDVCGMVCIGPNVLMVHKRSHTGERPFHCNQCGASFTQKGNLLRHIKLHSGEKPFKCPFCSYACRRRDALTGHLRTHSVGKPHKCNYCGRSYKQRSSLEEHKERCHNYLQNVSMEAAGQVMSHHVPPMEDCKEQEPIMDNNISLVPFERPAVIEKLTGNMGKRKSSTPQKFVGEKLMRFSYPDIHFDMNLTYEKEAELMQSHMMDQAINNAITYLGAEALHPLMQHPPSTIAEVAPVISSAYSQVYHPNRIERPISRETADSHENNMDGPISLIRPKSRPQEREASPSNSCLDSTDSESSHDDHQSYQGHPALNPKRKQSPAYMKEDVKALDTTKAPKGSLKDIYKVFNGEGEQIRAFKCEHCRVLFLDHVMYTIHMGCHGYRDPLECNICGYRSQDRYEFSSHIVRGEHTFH
T3 sequence (Q96SW2 whole entry): as the sequence (Q96SW2 whole entry) above
T3 sequence (Q16531 whole entry partner): as the sequence (Q16531 whole entry partner) above

IKZF3 = target: T4, IKZF3 (Homo sapiens, UniProt Q96SW2+Q9UKT9); assay: Western-blot assay, substrate protein degradation in hPBMCs: IKZF3
T4 construct: effects of the compounds of the present disclosure on the expression of target proteins in cells; endogenous in cells; host or cells: human PBMCs (hPBMCs)
T4 sequence (Q9UKT9 whole entry): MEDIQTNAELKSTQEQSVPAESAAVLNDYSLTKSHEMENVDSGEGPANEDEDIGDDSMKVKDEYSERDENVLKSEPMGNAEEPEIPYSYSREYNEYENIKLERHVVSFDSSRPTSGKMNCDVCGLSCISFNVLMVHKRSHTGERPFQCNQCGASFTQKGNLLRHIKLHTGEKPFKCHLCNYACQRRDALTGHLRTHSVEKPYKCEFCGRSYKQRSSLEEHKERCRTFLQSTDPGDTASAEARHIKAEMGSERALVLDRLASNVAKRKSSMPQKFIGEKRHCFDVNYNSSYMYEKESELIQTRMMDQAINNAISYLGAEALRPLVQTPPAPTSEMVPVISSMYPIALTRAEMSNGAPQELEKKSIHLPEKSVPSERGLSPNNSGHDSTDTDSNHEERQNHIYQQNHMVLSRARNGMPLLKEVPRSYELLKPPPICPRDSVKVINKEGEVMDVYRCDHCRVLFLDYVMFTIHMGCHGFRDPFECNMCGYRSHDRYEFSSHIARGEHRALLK
T4 sequence (Q96SW2 whole entry): as the sequence (Q96SW2 whole entry) above
T4 sequence (Q16531 whole entry partner): as the sequence (Q16531 whole entry partner) above

CK1α = target: T5, CK1α (Homo sapiens, UniProt P48729+Q96SW2); assay: Western-blot assay, substrate protein degradation in hPBMCs: CK1α
T5 construct: effects of the compounds of the present disclosure on the expression of target proteins in cells; endogenous in cells; host or cells: human PBMCs (hPBMCs)
T5 sequence (P48729 whole entry): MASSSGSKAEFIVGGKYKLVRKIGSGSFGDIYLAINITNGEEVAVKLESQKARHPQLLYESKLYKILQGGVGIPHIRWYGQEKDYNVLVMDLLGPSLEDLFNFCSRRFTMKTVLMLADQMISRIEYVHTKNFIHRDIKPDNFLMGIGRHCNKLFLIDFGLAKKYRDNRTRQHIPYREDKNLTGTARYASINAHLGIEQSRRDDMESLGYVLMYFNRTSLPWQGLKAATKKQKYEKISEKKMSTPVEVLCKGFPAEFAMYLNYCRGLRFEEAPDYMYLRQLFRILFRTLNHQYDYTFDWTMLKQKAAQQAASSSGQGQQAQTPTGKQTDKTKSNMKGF
T5 sequence (Q96SW2 whole entry): as the sequence (Q96SW2 whole entry) above
T5 sequence (Q16531 whole entry partner): as the sequence (Q16531 whole entry partner) above

GSPT1 = target: T6, GSPT1 (Homo sapiens, UniProt P15170+Q96SW2); assay: Western-blot assay, substrate protein degradation in hPBMCs: GSPT1
T6 construct: effects of the compounds of the present disclosure on the expression of target proteins in cells; endogenous in cells; host or cells: human PBMCs (hPBMCs)
T6 sequence (P15170 whole entry): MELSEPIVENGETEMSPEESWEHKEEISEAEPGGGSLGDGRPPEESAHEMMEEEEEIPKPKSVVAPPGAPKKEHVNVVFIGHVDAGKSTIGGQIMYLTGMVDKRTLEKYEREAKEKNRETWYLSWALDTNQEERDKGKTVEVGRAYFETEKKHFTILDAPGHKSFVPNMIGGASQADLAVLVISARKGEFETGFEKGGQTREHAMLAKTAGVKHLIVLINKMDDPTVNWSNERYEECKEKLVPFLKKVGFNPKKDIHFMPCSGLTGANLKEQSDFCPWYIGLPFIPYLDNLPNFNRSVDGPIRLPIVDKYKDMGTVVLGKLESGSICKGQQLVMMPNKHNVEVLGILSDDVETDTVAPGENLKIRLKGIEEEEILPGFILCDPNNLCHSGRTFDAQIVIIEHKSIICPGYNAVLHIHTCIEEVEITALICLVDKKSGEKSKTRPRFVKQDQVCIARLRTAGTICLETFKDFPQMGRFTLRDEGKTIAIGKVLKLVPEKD
T6 sequence (Q96SW2 whole entry): as the sequence (Q96SW2 whole entry) above
T6 sequence (Q16531 whole entry partner): as the sequence (Q16531 whole entry partner) above

Structure (SMILES): O=C1CCN(N2C(=O)c3ccc(CN4CCC(c5ccnc6cc(F)ccc56)CC4)cc3C2=O)C(=O)N1 [GT-07689, 2-(2,4-dioxotetrahydropyrimidin-1(2H)-yl)-5-((4-(7-fluoroquinolin-4-yl)piperidin-1-yl)methyl)isoindoline-1,3-dione]
- substrate protein remaining % WEE1 (WEE1): B (80%< substrate protein remaining %≤ 100%)
- substrate protein remaining % IKZF1 (IKZF1): B (80%< substrate protein remaining %≤ 100%)
- substrate protein remaining % IKZF2 (IKZF2): B (80%< substrate protein remaining %≤ 100%)
- substrate protein remaining % IKZF3 (IKZF3): B (80%< substrate protein remaining %≤ 100%)
- substrate protein remaining % CK1α (CK1α): A (0% ≤ substrate protein remaining % ≤ 80%)
- substrate protein remaining % GSPT1 (GSPT1): A (0% ≤ substrate protein remaining % ≤ 80%)

Structure (SMILES): O=C1CCN(N2Cc3cc(CN4CC(C5CCOc6cc(F)ccc65)C4)ccc3C2=O)C(=O)N1 (stereo not drawn) [GT-07690, 1-(5-((3-(7-fluorochroman-4-yl)azetidin-1-yl)methyl)-1-oxoisoindolin-2-yl)dihydropyrimidine-2,4(1H,3H)-dione]
- substrate protein remaining % WEE1 (WEE1): B (80%< substrate protein remaining %≤ 100%)
- substrate protein remaining % IKZF1 (IKZF1): B (80%< substrate protein remaining %≤ 100%)
- substrate protein remaining % IKZF2 (IKZF2): A (0% ≤ substrate protein remaining % ≤ 80%)
- substrate protein remaining % IKZF3 (IKZF3): B (80%< substrate protein remaining %≤ 100%)
- substrate protein remaining % CK1α (CK1α): A (0% ≤ substrate protein remaining % ≤ 80%)
- substrate protein remaining % GSPT1 (GSPT1): A (0% ≤ substrate protein remaining % ≤ 80%)

Structure (SMILES): O=C1CCN(N2Cc3cc(CN4CC(c5ccnc6cc(F)ccc56)C4)ccc3C2=O)C(=O)N1 [GT-07711, 1-(5-((3-(7-fluoroquinolin-4-yl)azetidin-1-yl)methyl)-1-oxoisoindolin-2-yl)dihydropyrimidine-2,4(1H,3H)-dione]
- substrate protein remaining % WEE1 (WEE1): B (80%< substrate protein remaining %≤ 100%)
- substrate protein remaining % IKZF1 (IKZF1): A (0% ≤ substrate protein remaining % ≤ 80%)
- substrate protein remaining % IKZF2 (IKZF2): A (0% ≤ substrate protein remaining % ≤ 80%)
- substrate protein remaining % IKZF3 (IKZF3): A (0% ≤ substrate protein remaining % ≤ 80%)
- substrate protein remaining % CK1α (CK1α): A (0% ≤ substrate protein remaining % ≤ 80%)
- substrate protein remaining % GSPT1 (GSPT1): A (0% ≤ substrate protein remaining % ≤ 80%)

Structure (SMILES): O=C1CCN(N2C(=O)c3ccc(CN4CC(C5CCOc6cc(F)ccc65)C4)cc3C2=O)C(=O)N1 (stereo not drawn) [GT-07715, 2-(2,4-dioxotetrahydropyrimidin-1(2H)-yl)-5-((3-(7-fluorochroman-4-yl)azetidin-1-yl)methyl)isoindoline-1,3-dione]
- substrate protein remaining % WEE1 (WEE1): B (80%< substrate protein remaining %≤ 100%)
- substrate protein remaining % IKZF1 (IKZF1): B (80%< substrate protein remaining %≤ 100%)
- substrate protein remaining % IKZF2 (IKZF2): B (80%< substrate protein remaining %≤ 100%)
- substrate protein remaining % IKZF3 (IKZF3): B (80%< substrate protein remaining %≤ 100%)
- substrate protein remaining % CK1α (CK1α): A (0% ≤ substrate protein remaining % ≤ 80%)
- substrate protein remaining % GSPT1 (GSPT1): A (0% ≤ substrate protein remaining % ≤ 80%)

Structure (SMILES): O=C1CCN(N2C(=O)c3ccc(CN4CC(c5ccnc6cc(F)ccc56)C4)cc3C2=O)C(=O)N1 [GT-07718, 2-(2,4-dioxotetrahydropyrimidin-1(2H)-yl)-5-((3-(7-fluoroquinolin-4-yl)azetidin-1-yl)methyl)isoindoline-1,3-dione]
- substrate protein remaining % WEE1 (WEE1): B (80%< substrate protein remaining %≤ 100%)
- substrate protein remaining % IKZF1 (IKZF1): B (80%< substrate protein remaining %≤ 100%)
- substrate protein remaining % IKZF2 (IKZF2): B (80%< substrate protein remaining %≤ 100%)
- substrate protein remaining % IKZF3 (IKZF3): A (0% ≤ substrate protein remaining % ≤ 80%)
- substrate protein remaining % CK1α (CK1α): A (0% ≤ substrate protein remaining % ≤ 80%)
- substrate protein remaining % GSPT1 (GSPT1): A (0% ≤ substrate protein remaining % ≤ 80%)

Structure (SMILES): O=C1CCN(N2Cc3cc(CN4CCn5c(nnc5C(F)(F)F)C4)ccc3C2=O)C(=O)N1 [GT-07719, 1-(1-oxo-5-((3-(trifluoromethyl)-5,6-dihydro-[1,2,4]triazolo[4,3-a]pyrazin-7(8H)-yl)methyl)isoindolin-2-yl)dihydropyrimidine-2,4(1H,3H)-dione]
- substrate protein remaining % WEE1 (WEE1): B (80%< substrate protein remaining %≤ 100%)
- substrate protein remaining % IKZF1 (IKZF1): B (80%< substrate protein remaining %≤ 100%)
- substrate protein remaining % IKZF2 (IKZF2): A (0% ≤ substrate protein remaining % ≤ 80%)
- substrate protein remaining % IKZF3 (IKZF3): A (0% ≤ substrate protein remaining % ≤ 80%)
- substrate protein remaining % CK1α (CK1α): A (0% ≤ substrate protein remaining % ≤ 80%)
- substrate protein remaining % GSPT1 (GSPT1): A (0% ≤ substrate protein remaining % ≤ 80%)

Structure (SMILES): O=C1CCN(N2Cc3cc(CN4CCc5sccc5C4)ccc3C2=O)C(=O)N1 [GT-07720, 1-(5-((6,7-dihydrothieno[3,2-c]pyridin-5(4H)-yl)methyl)-1-oxoisoindolin-2-yl)dihydropyrimidine-2,4(1H,3H)-dione]
- substrate protein remaining % WEE1 (WEE1): A (0% ≤ substrate protein remaining % ≤ 80%)
- substrate protein remaining % IKZF1 (IKZF1): A (0% ≤ substrate protein remaining % ≤ 80%)
- substrate protein remaining % IKZF2 (IKZF2): A (0% ≤ substrate protein remaining % ≤ 80%)
- substrate protein remaining % IKZF3 (IKZF3): A (0% ≤ substrate protein remaining % ≤ 80%)
- substrate protein remaining % CK1α (CK1α): A (0% ≤ substrate protein remaining % ≤ 80%)
- substrate protein remaining % GSPT1 (GSPT1): A (0% ≤ substrate protein remaining % ≤ 80%)

Structure (SMILES): O=C1CCN(N2Cc3cc(CN4CCN(Cc5ccc(C67CC8CC(CC(C8)C6)C7)cc5)CC4)ccc3C2=O)C(=O)N1 [GT-07721, 1-(5-((4-(4-((3r,5r,7r)-adamantan-1-yl)benzyl)piperazin-1-yl)methyl)-1-oxoisoindolin-2-yl)dihydropyrimidine-2,4(1H,3H)-dione]
- substrate protein remaining % WEE1 (WEE1): A (0% ≤ substrate protein remaining % ≤ 80%)
- substrate protein remaining % IKZF1 (IKZF1): A (0% ≤ substrate protein remaining % ≤ 80%)
- substrate protein remaining % IKZF2 (IKZF2): A (0% ≤ substrate protein remaining % ≤ 80%)
- substrate protein remaining % IKZF3 (IKZF3): A (0% ≤ substrate protein remaining % ≤ 80%)
- substrate protein remaining % CK1α (CK1α): A (0% ≤ substrate protein remaining % ≤ 80%)
- substrate protein remaining % GSPT1 (GSPT1): A (0% ≤ substrate protein remaining % ≤ 80%)

Structure (SMILES): O=C1CCN(N2C(=O)c3ccc(CN4CCN(Cc5ccc(C67CC8CC(CC(C8)C6)C7)cc5)CC4)cc3C2=O)C(=O)N1 [GT-07722, 5-((4-(4-((3r,5r,7r)-adamantan-1-yl)benzyl)piperazin-1-yl)methyl)-2-(2,4-dioxotetrahydropyrimidin-1(2H)-yl)isoindoline-1,3-dione]
- substrate protein remaining % WEE1 (WEE1): A (0% ≤ substrate protein remaining % ≤ 80%)
- substrate protein remaining % IKZF1 (IKZF1): B (80%< substrate protein remaining %≤ 100%)
- substrate protein remaining % IKZF2 (IKZF2): A (0% ≤ substrate protein remaining % ≤ 80%)
- substrate protein remaining % IKZF3 (IKZF3): A (0% ≤ substrate protein remaining % ≤ 80%)
- substrate protein remaining % CK1α (CK1α): A (0% ≤ substrate protein remaining % ≤ 80%)
- substrate protein remaining % GSPT1 (GSPT1): A (0% ≤ substrate protein remaining % ≤ 80%)

Structure (SMILES): NCc1ccc2c(c1)C(=O)N(N1CCC(=O)NC1=O)C2=O [GT-07968, 5-(aminomethyl)-2-(2,4-dioxotetrahydropyrimidin-1(2H)-yl)isoindoline-1,3-dione]
- substrate protein remaining % WEE1 (WEE1): A (0% ≤ substrate protein remaining % ≤ 80%)
- substrate protein remaining % IKZF1 (IKZF1): A (0% ≤ substrate protein remaining % ≤ 80%)
- substrate protein remaining % IKZF2 (IKZF2): A (0% ≤ substrate protein remaining % ≤ 80%)
- substrate protein remaining % IKZF3 (IKZF3): A (0% ≤ substrate protein remaining % ≤ 80%)
- substrate protein remaining % CK1α (CK1α): A (0% ≤ substrate protein remaining % ≤ 80%)
- substrate protein remaining % GSPT1 (GSPT1): B (80%< substrate protein remaining %≤ 100%)

Structure (SMILES): O=C1CCN(N2C(=O)c3ccc(CN4CC=C(c5ncnc6scc(-c7ccccc7)c56)CC4)cc3C2=O)C(=O)N1 [GT-08431, 2-(2,4-dioxotetrahydropyrimidin-1(2H)-yl)-5-((4-(5-phenylthieno[2,3-d]pyrimidin-4-yl)-3,6-dihydropyridin-1(2H)-yl)methyl)isoindoline-1,3-dione]
- substrate protein remaining % WEE1 (WEE1): A (0% ≤ substrate protein remaining % ≤ 80%)
- substrate protein remaining % IKZF1 (IKZF1): B (80%< substrate protein remaining %≤ 100%)
- substrate protein remaining % IKZF2 (IKZF2): A (0% ≤ substrate protein remaining % ≤ 80%)
- substrate protein remaining % IKZF3 (IKZF3): B (80%< substrate protein remaining %≤ 100%)
- substrate protein remaining % CK1α (CK1α): B (80%< substrate protein remaining %≤ 100%)
- substrate protein remaining % GSPT1 (GSPT1): B (80%< substrate protein remaining %≤ 100%)

Structure (SMILES): Cc1nc(C2=CCN(Cc3ccc4c(c3)C(=O)N(N3CCC(=O)NC3=O)C4=O)CC2)c2c3c(sc2n1)CCC3 [GT-08435, 2-(2,4-dioxotetrahydropyrimidin-1(2H)-yl)-5-((4-(2-methyl-6,7-dihydro-5H-cyclopenta[4,5]thieno[2,3-d]pyrimidin-4-yl)-3,6-dihydropyridin-1(2H)-yl)methyl)isoindoline-1,3-dione]
- substrate protein remaining % WEE1 (WEE1): A (0% ≤ substrate protein remaining % ≤ 80%)
- substrate protein remaining % IKZF1 (IKZF1): A (0% ≤ substrate protein remaining % ≤ 80%)
- substrate protein remaining % IKZF2 (IKZF2): B (80%< substrate protein remaining %≤ 100%)
- substrate protein remaining % IKZF3 (IKZF3): A (0% ≤ substrate protein remaining % ≤ 80%)
- substrate protein remaining % CK1α (CK1α): B (80%< substrate protein remaining %≤ 100%)
- substrate protein remaining % GSPT1 (GSPT1): A (0% ≤ substrate protein remaining % ≤ 80%)

Structure (SMILES): O=C1CCN(N2Cc3cc(CN4CCN(c5nc(Cl)nc6ccsc56)CC4)ccc3C2=O)C(=O)N1 [GT-08444, 1-(5-((4-(2-chlorothieno[3,2-d]pyrimidin-4-yl)piperazin-1-yl)methyl)-1-oxoisoindolin-2-yl)dihydropyrimidine-2,4(1H,3H)-dione]
- substrate protein remaining % WEE1 (WEE1): A (0% ≤ substrate protein remaining % ≤ 80%)
- substrate protein remaining % IKZF1 (IKZF1): B (80%< substrate protein remaining %≤ 100%)
- substrate protein remaining % IKZF2 (IKZF2): B (80%< substrate protein remaining %≤ 100%)
- substrate protein remaining % IKZF3 (IKZF3): B (80%< substrate protein remaining %≤ 100%)
- substrate protein remaining % CK1α (CK1α): B (80%< substrate protein remaining %≤ 100%)
- substrate protein remaining % GSPT1 (GSPT1): B (80%< substrate protein remaining %≤ 100%)
